{"source": "ChEMBL document CHEMBL5727915", "about": "“Substituted [5,6]cyclic-4(3H)-pyrimidinones as anticancer agents” (2020)", "data": [{"biological_target": "CDC7/DBF4 (Cell division cycle 7-related protein kinase/Activator of S phase kinase) (Homo sapiens, UniProt O00311)", "sequence (Q9UBU7 whole entry)": "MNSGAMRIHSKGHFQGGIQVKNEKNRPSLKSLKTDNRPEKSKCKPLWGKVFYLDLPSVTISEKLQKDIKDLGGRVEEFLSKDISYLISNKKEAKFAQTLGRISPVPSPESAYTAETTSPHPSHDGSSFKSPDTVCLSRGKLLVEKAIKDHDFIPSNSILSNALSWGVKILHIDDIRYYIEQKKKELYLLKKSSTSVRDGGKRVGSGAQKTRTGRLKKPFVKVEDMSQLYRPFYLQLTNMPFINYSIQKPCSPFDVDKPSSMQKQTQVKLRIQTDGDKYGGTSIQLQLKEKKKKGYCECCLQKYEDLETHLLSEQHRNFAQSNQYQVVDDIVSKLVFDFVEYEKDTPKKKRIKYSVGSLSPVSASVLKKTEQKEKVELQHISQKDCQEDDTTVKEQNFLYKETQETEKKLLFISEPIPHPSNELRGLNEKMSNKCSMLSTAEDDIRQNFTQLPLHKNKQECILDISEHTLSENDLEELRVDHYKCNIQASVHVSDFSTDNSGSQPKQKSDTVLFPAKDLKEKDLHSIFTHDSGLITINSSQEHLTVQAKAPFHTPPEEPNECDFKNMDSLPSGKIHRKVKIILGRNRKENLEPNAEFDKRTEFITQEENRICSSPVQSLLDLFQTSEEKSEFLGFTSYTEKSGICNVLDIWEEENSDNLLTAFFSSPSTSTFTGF", "sequence (O00311 whole entry)": "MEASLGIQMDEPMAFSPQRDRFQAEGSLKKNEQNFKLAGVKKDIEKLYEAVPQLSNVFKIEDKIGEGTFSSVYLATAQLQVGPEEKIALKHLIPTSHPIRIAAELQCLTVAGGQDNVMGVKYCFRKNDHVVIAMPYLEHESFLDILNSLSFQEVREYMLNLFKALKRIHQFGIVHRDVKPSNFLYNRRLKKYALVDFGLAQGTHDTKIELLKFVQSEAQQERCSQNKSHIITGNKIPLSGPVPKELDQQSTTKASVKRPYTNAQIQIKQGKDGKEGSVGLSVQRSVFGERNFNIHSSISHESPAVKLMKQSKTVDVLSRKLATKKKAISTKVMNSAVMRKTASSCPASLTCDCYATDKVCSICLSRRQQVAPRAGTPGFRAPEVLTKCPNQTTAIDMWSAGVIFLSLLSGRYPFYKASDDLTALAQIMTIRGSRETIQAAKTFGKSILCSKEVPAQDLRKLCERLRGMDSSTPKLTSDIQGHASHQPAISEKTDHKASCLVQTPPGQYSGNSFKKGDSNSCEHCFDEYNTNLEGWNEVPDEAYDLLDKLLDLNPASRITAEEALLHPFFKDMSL", "assay": "Biochemical Assay: Biochemical assay was tested in the U-shaped bottom 384 plate (corning, #4514) with a final volume of […] at 27° C. The concentration of CDC7 was optimized by the enzyme titration experiment. CDC7 kinase was diluted in assay buffer (40 mM Tris.HCl pH 7.25, 100 ug/mL BSA, and 20 mM MgCl2) to get 2.4× enzyme solutions. Compounds were dissolved in 10 mM DMSO, and series diluted in DMSO from 0.3 mM to 0.3 nM (5 concentration pts); All dilutions were diluted 30× in assay buffer to get 6× compounds solutions. MCM2 Substrate and ATP were diluted to 2.4× mixed solution. Add 2 ul test compound solution to 384 assay plate, then add 5 ul substrate/ATP mixed solution, at last add 5 ul enzyme solution, incubate at 27° C. for 180 mins. Transfer 5 ul reaction solution to another 384 assay plate, then add 5 ul ADP-Glo™ Reagent (Promega) to each well and incubate at 27° C. for 40 mins; Add 10 ul Kinase Detection Reagent (Promega) to each well and incubate at 27° C. for 30 mins. 10 uM CDC7-3 compound was used as 100% inhibition while 100% DMSO control was used as 0% inhibition. Each test has three replications at least.", "assay_type": "protein-complex assay", "units": {"IC50": "µM"}, "values": [{"smiles": "CC[C@H](N)c1nc2cc(-c3ccnc(F)c3)sc2c(=O)[nH]1", "IC50": "< 1"}, {"smiles": "CC(C)[C@H](N)c1nc2cc(-c3ccnc(Cl)c3)sc2c(=O)[nH]1", "IC50": "< 1"}, {"smiles": "CN[C@H](c1nc2cc(-c3ccnc(F)c3)sc2c(=O)[nH]1)C(C)C", "IC50": "< 10"}, {"smiles": "Cc1cc(-c2cc3nc([C@@H](N)C(C)C)[nH]c(=O)c3s2)ccn1", "IC50": "< 1"}]}]}
